We go through 36 molecules from patent US10730863B2, “Bridged bicyclic compounds as farnesoid X receptor modulators” (BRISTOL-MYERS SQUIBB COMPANY, priority 2017, dated 2020).

The target of the assay is FXR (Homo sapiens (Human), UniProt Q96RI1). Briefly: FXR EC50 (FXR agonist activity reported with each example). Format: cell-based.
FXR, sequence (Q96RI1 262-486): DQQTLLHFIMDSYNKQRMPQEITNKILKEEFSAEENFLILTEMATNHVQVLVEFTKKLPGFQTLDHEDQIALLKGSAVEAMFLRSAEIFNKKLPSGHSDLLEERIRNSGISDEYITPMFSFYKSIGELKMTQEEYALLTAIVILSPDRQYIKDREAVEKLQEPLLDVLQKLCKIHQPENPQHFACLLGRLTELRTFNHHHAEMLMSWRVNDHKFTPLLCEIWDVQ
What is called EC50 is the concentration giving half of the maximal effect. Low readings indicate an effect from little substance, high ones a need for much substance. `O=C(O)c1cnn(CC23CCC(OCc4c(-c5c(Cl)cccc5Cl)noc4C4CC4)(CC2)CC3)c1C(F)F` [Example 269, 1-((4-((5-cyclopropyl-3-(2,6-dichlorophenyl)isoxazol-4-yl)methoxy)bicyclo[2.2.2]octan-1-yl)methyl)-5-(difluoromethyl)-1H-pyrazole-4-carboxylic acid] had an EC50 of 0.7 µM.

The molecule `O=C(O)c1cccc2nc(C34CCC(OCc5c(-c6c(Cl)cccc6Cl)noc5C5CC5)(CC3)CO4)sc12` [Example 454, 2-(4-((5-cyclopropyl-3-(2,6-dichlorophenyl)isoxazol-4-yl)methoxy)-2-oxabicyclo[2.2.2]octan-1-yl)benzo[d]thiazole-7-carboxylic acid] registered an EC50 of 0.68 µM.

The molecule `Clc1cccc(Cl)c1-c1noc(C2CC2)c1COCC12CCC(c3cccc(-c4nnn[nH]4)c3)(CC1)OC2` [Example 220, 4-(((1-(3-(1H-tetrazol-5-yl)phenyl)-2-oxabicyclo[2.2.2]octan-4-yl)methoxy)methyl)-5-cyclopropyl-3-(2,6-dichlorophenyl)isoxazole] showed an EC50 of 0.87 µM. As for `Cn1nc(OCC23CCC(OCc4c(-c5c(Cl)cncc5Cl)noc4C4CC4)(CC2)CC3)cc1C(=O)O` [Example 315], the figure is 0.34 µM; as for `O=C(O)c1ccccc1CNC(=O)C12CCC(OCc3c(-c4c(Cl)cccc4Cl)noc3C3CC3)(CC1)CC2` [Example 142, 2-((4-((5-cyclopropyl-3-(2,6-dichlorophenyl)isoxazol-4-yl)methoxy)bicyclo[2.2.2]octane-1-carboxamido)methyl)benzoic acid], 1.3 µM; as for `COc1ccc(-c2nc(C34CCC(OCc5c(-c6c(Cl)cncc6Cl)noc5C5CC5)(CC3)CC4)cs2)cc1C(=O)O` [Example 255, 5-(4-(4-((5-cyclopropyl-3-(3,5-dichloropyridin-4-yl)isoxazol-4-yl)methoxy)bicyclo[2.2.2]octan-1-yl)thiazol-2-yl)-2-methoxybenzoic acid], 0.018 µM. As for `Cn1cc(C(=O)O)c2ccc(C34CCC(OCc5c(-c6c(Cl)cccc6Cl)noc5C5CC5)(CC3)CC4)nc21` [Example 135, 6-(4-((5-cyclopropyl-3-(2,6-dichlorophenyl)isoxazol-4-yl)methoxy)bicyclo[2.2.2]octan-1-yl)-1-methyl-1H-pyrrolo[2,3-b]pyridine-3-carboxylic acid], the figure is 0.009 µM.

`CCOc1cc(C(=O)O)nc2ccc(OCC34CCC(OCc5c(-c6c(Cl)cncc6Cl)noc5C5CC5)(CC3)CC4)cc12` [Example 345] returned an EC50 of 0.014 µM. As for `COCc1cc(C#CC23CCC(OCc4c(-c5c(Cl)cncc5Cl)noc4C4CC4)(CC2)CC3)cc(C(=O)O)c1` [Example 386], the figure is 0.031 µM; as for `COc1cc(-c2noc(C34CCC(OCc5c(-c6c(Cl)cncc6Cl)noc5C5CC5)(CC3)CC4)n2)cc(C(=O)O)c1F` [Example 241, 5-(5-(4-((5-cyclopropyl-3-(3,5-dichloropyridin-4-yl)isoxazol-4-yl)methoxy)bicyclo[2.2.2]octan-1-yl)-1,2,4-oxadiazol-3-yl)-2-fluoro-3-methoxybenzoic acid], 0.13 µM. As for `O=C(O)c1cc(-c2noc(C34CCC(OCc5c(-c6c(Cl)cncc6Cl)noc5C5CC5)(CC3)CC4)n2)ccc1C(F)(F)F` [Example 254, 5-(5-(4-((5-cyclopropyl-3-(3,5-dichloropyridin-4-yl)isoxazol-4-yl)methoxy)bicyclo[2.2.2]octan-1-yl)-1,2,4-oxadiazol-3-yl)-2-(trifluoromethyl)benzoic acid], the figure is 2 µM.

Turning to `Oc1ccc(-c2noc(C34CCC(OCc5c(-c6c(Cl)cncc6Cl)noc5C5CC5)(CC3)CC4)n2)cc1-c1nnn[nH]1` [Example 242, 4-(5-(4-((5-cyclopropyl-3-(3,5-dichloropyridin-4-yl)isoxazol-4-yl)methoxy)bicyclo[2.2.2]octan-1-yl)-1,2,4-oxadiazol-3-yl)-2-(1H-tetrazol-5-yl)phenol], a half-maximal effect (EC50) was put at 1.4 µM. As for `O=C(O)c1cc(C(F)(F)F)cc(C23CCC(/C=C/c4c(-c5c(Cl)cncc5Cl)noc4C4CC4)(CC2)CO3)c1` [Example 491, (E)-3-(4-(2-(5-cyclopropyl-3-(3,5-dichloropyridin-4-yl)isoxazol-4-yl)vinyl)-2-oxabicyclo[2.2.2]octan-1-yl)-5-(trifluoromethyl)benzoic acid], the figure is 0.026 µM; as for `COC(=O)c1ccc(-c2noc(C34CCC(COCc5c(-c6c(Cl)cccc6Cl)noc5C5CC5)(CC3)CC4)n2)cc1` [Example 156], 1.7 µM; as for `COc1cncc(Cl)c1-c1noc(C2CC2)c1/C=C/C12CCC(c3ccc(C(C)(C)C(=O)O)cc3)(CC1)OC2` [Example 483, (E)-2-(4-(4-(2-(3-(3-chloro-5-methoxypyridin-4-yl)-5-cyclopropylisoxazol-4-yl)vinyl)-2-oxabicyclo[2.2.2]octan-1-yl)phenyl)-2-methylpropanoic acid], 4.5 µM. As for `COc1cc(C(=O)O)nc2c(F)cc(OCC34CCC(OCc5c(-c6c(Cl)cncc6Cl)noc5C5CC5)(CC3)CC4)cc12` [Example 303, 6-((4-((5-cyclopropyl-3-(3,5-dichloropyridin-4-yl)isoxazol-4-yl)methoxy)bicyclo[2.2.2]octan-1-yl)methoxy)-8-fluoro-4-methoxyquinoline-2-carboxylic acid], the figure is 0.024 µM; as for `O=C(O)c1cc(OCC2CC2)c2cc(OCC34CCC(OCc5c(-c6c(Cl)cncc6Cl)noc5C5CC5)(CC3)CC4)ccc2n1` [Example 346], 0.018 µM. As for `CC(C)COc1cc(C(=O)O)nc2ccc(OCC34CCC(OCc5c(-c6c(Cl)cncc6Cl)noc5C5CC5)(CC3)CC4)cc12` [Example 355], the figure is 0.018 µM; as for `O=C(O)c1cccc(-c2noc(C34CCC(/C=C/c5c(-c6c(Cl)cncc6Cl)noc5C5CC5)(CC3)OC4)n2)c1` [Example 495, (E)-3-(5-(1-(2-(5-cyclopropyl-3-(3,5-dichloropyridin-4-yl)isoxazol-4-yl)vinyl)-2-oxabicyclo[2.2.2]octan-4-yl)-1,2,4-oxadiazol-3-yl)benzoic acid], 1.7 µM. The molecule `O=C(O)c1ccc2cc(OCC34CCC(OCc5c(-c6c(Cl)cccc6Cl)noc5C5CC5)(CC3)CC4)ccc2n1` [Example 105, 6-((4-((5-cyclopropyl-3-(2,6-dichlorophenyl)isoxazol-4-yl)methoxy)bicyclo[2.2.2]octan-1-yl)methoxy)quinoline-2-carboxylic acid] returned an EC50 of 0.076 µM. As for `CC(C)Oc1cc(OCC23CCC(OCc4c(-c5c(Cl)cncc5Cl)noc4C4CC4)(CC2)CC3)cc(C(=O)O)c1` [Example 326], the EC50 stood at 0.017 µM. Turning to `O=C(O)c1sc(OCC23CCC(OCc4c(-c5c(Cl)cncc5Cl)noc4C4CC4)(CC2)CC3)nc1C(F)(F)F` [Example 317], the EC50 amounted to 0.21 µM. As for `O=C(O)c1ccc(C23CCC(/C=C/c4c(-c5c(Cl)cncc5Cl)noc4C4CC4)(CC2)CO3)cc1` [Example 457, (E)-4-(4-(2-(5-cyclopropyl-3-(3,5-dichloropyridin-4-yl)isoxazol-4-yl)vinyl)-2-oxabicyclo[2.2.2]octan-1-yl)benzoic acid], the figure is 0.087 µM; as for `O=C(O)c1cc(F)cc(-c2noc(C34CCC(OCc5c(-c6c(Cl)cccc6Cl)noc5C5CC5)(CC3)CO4)n2)c1` [Example 219, 3-(5-(4-((5-cyclopropyl-3-(2,6-dichlorophenyl)isoxazol-4-yl)methoxy)-2-oxabicyclo[2.2.2]octan-1-yl)-1,2,4-oxadiazol-3-yl)-5-fluorobenzoic acid], 0.3 µM. `O=C(O)c1cccc(NCC23CCC(OCc4c(-c5ccccc5OC(F)(F)F)noc4C4CC4)(CC2)CC3)c1` [Example 85] had an EC50 of 0.61 µM. As for `O=C(O)c1cccc(NC(=O)C23CCC(COCc4c(-c5c(Cl)cccc5Cl)noc4C4CC4)(CC2)CC3)c1Cl` [Example 173], the figure is 1.4 µM; as for `CC(C)Oc1cc(OCC23CCC(OCc4c(-c5c(Cl)cncc5Cl)noc4C4CC4)(CC2)CC3)cnc1C(=O)O` [Example 334, 5-((4-((5-cyclopropyl-3-(3,5-dichloropyridin-4-yl)isoxazol-4-yl)methoxy)bicyclo[2.2.2]octan-1-yl)methoxy)-3-isopropoxypicolinic acid], 0.021 µM; as for `O=C(O)c1cnc(C#CC23CCC(OCc4c(-c5c(Cl)cncc5Cl)noc4C4CC4)(CC2)CC3)c(F)c1` [Example 379], 0.24 µM. In the case of `O=C(O)c1cc(C(F)(F)F)c2cc(OCC34CCC(OCc5c(-c6c(Cl)cccc6Cl)noc5C5CC5)(CC3)CC4)ccc2n1` [Example 100, 6-((4-((5-cyclopropyl-3-(2,6-dichlorophenyl)isoxazol-4-yl)methoxy)bicyclo[2.2.2]octan-1-yl)methoxy)-4-(trifluoromethyl) quinoline-2-carboxylic acid], the EC50 was determined as 0.007 µM. As for `COc1ccc(C#CC23CCC(OCc4c(-c5c(Cl)cncc5Cl)noc4C4CC4)(CC2)CC3)cc1C(=O)O` [Example 367], the figure is 0.091 µM; as for `Cc1cc(OCC23CCC(OCc4c(-c5c(Cl)cncc5Cl)noc4C4CC4)(CC2)CC3)cnc1C(=O)O` [Example 348, 5-((4-((5-cyclopropyl-3-(3,5-dichloropyridin-4-yl)isoxazol-4-yl)methoxy)bicyclo[2.2.2]octan-1-yl)methoxy)-3-methylpicolinic acid], 0.059 µM; as for `O=C(O)c1cc(C23CCC(COCc4c(-c5c(Cl)cccc5Cl)noc4C4CC4)(CC2)CO3)ccc1F` [Example 202], 0.39 µM. As for `O=C(O)c1cc(F)c2nc(C34CCC(OCc5c(-c6ccccc6OC(F)(F)F)noc5C5CC5)(CC3)CC4)sc2c1` [Example 15, 2-(4-((5-cyclopropyl-3-(2-(trifluoromethoxy)phenyl)isoxazol-4-yl)methoxy)bicyclo[2.2.2]octan-1-yl)-4-fluorobenzo[d]thiazole-6-carboxylic acid], the figure is 0.21 µM; as for `O=C(O)c1ccc(OC2CCC2)c2nc(C34CCC(OCc5c(-c6c(Cl)cncc6Cl)noc5C5CC5)(CC3)CC4)ccc12` [Example 405], 0.028 µM; as for `O=C(O)c1ccc(-c2noc(C34CCC(OCc5c(-c6ccccc6OC(F)(F)F)noc5C5CC5)(CC3)CC4)n2)nc1` [Example 42], 1.5 µM. As for `O=C(O)c1ccc2nc(C34CCC(OCc5c(-c6c(Cl)cncc6Cl)noc5C5CC5)(CC3)CC4)ccc2n1` [Example 421], the figure is 0.053 µM.
